The text below walks through data of the supplement of paper PMC10307832.

Common to all, as to experiment: relative viability (nuclei count vs DMSO), 5 days (fraction); higher = more cells survive
Compound in the assay “BAM7 + Alpelisib”: CCOC1=CC=CC=C1N=NC2=C(NN(C2=O)C3=NC(=CS3)C4=CC=CC=C4)C [BAM7] + Cc1nc(NC(=O)N2CCC[C@H]2C(N)=O)sc1-c1ccnc(C(C)(C)C(F)(F)F)c1 [Alpelisib] (partner 2 µM)
Put shortly:
(§1)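 A single step with final 0.05% Triton X-100, 1% formaldehyde and 1 ug/ml Hoechst fixed the cells and stained nuclei 5 days after treatment. Lung cancer cell lines in 1536-well plates had been treated by pin tool the day after seeding with one drug alone or a fixed anchor-drug dose plus five library-drug doses (not always all listed) in √10 steps, and nuclei were counted on 4× images. Relative viability is the ratio of nuclei in treated wells to nuclei in vehicle wells, taken as the median of duplicate plates.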

Compound in the assay “BAM7 + Vorinostat”: CCOC1=CC=CC=C1N=NC2=C(NN(C2=O)C3=NC(=CS3)C4=CC=CC=C4)C [BAM7] + O=C(CCCCCCC(=O)Nc1ccccc1)NO [Vorinostat] (partner 1 µM)
The procedure, abridged:
as §1

Compound in the assay “BAM7 + Decitabine”: CCOC1=CC=CC=C1N=NC2=C(NN(C2=O)C3=NC(=CS3)C4=CC=CC=C4)C [BAM7] + Nc1ncn([C@H]2C[C@H](O)[C@@H](CO)O2)c(=O)n1 [Decitabine] (partner 2 µM)
The procedure, abridged: as §1

Compound in assay [1]: CCn1c(-c2nonc2N)nc2c(C#CC(C)(C)O)ncc(OC[C@H]3CCCNC3)c21 + CS(=O)(=O)CCNCc1ccc(-c2ccc3ncnc(Nc4ccc(OCc5cccc(F)c5)c(Cl)c4)c3c2)o1 [Lapatinib] (partner 2 µM)
Put shortly:
as §1

UMC-11: the relative viability in the assay with BAM7 + Alpelisib (first compound 0.5 µM) came to 1.11; with BAM7 + Alpelisib (first compound 5 µM), 1.12; with BAM7 + Alpelisib (first compound 15.81 µM), 0.992; with BAM7 + Alpelisib (first compound 50 µM) it was 0.989; in the assay with BAM7 + Vorinostat (first compound 0.5 µM) it was 0.37; in the assay with BAM7 + Vorinostat (first compound 5 µM), 0.478. Further, the relative viability was 0.469 with BAM7 + Vorinostat (first compound 15.81 µM); 0.362 in the assay with BAM7 + Vorinostat (first compound 50 µM); 0.603 with BAM7 + Decitabine (first compound 0.5 µM); 0.687 with BAM7 + Decitabine (first compound 5 µM); 0.618 with BAM7 + Decitabine (first compound 15.81 µM); 0.635 with BAM7 + Decitabine (first compound 50 µM). For the same cell line, the relative viability was 1.08 in assay [1] (first compound 0.01 µM); 0.987 in assay [1] (first compound 0.03162 µM); 0.952 in assay [1] (first compound 0.1 µM); 0.818 in assay [1] (first compound 0.3162 µM); 1.08 in assay [1] (first compound 1 µM).
